Molecular target: human APJ receptor (Homo sapiens (Human), UniProt P35414)
Assay: [35S]GTPγS binding assay on membranes from CHO cells stably expressing human APJ receptor
Format: biochemical
Settings: membranes of CHO cells stably expressing human APJ receptor, read-out: Activity hAPJ SPA EC50 IP
In short: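 Agonist EC50 values come from non-linear regression of mean data from several independent runs. Membranes of CHO cells stably expressing human APJ were incubated 90 min at room temperature with [35S]GTPγS in buffer with optimized GDP, MgCl2 and NaCl, then read on a microplate imager.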

Sequence of human APJ receptor (P35414 whole entry): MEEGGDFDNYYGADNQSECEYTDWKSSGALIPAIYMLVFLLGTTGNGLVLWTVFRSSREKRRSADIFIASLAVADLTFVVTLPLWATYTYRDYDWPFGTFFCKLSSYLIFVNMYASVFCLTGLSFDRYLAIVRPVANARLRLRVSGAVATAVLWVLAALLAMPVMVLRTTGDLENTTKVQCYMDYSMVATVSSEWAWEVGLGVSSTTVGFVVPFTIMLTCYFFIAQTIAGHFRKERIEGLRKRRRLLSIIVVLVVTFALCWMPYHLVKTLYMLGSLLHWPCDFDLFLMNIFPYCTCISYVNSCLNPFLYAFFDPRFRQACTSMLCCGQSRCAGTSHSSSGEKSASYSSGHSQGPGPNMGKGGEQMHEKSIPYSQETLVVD

Structure (SMILES)	EC50 [nM]
COc1cccc(-c2nnc(NS(=O)(=O)[C@@H](C)[C@H](OC)c3ncc(Cl)cn3)n2[C@H]2CCCC[C@H]2C)n1 (stereo in doubt) [Example 75.0]	3
COc1cccc(-c2nnc(NS(=O)(=O)[C@@H](C)[C@H](C)c3ncc(Cl)cn3)n2CC2COC2)n1 [Example 2.0, (2S,3R)-3-(5-chloro-2-pyrimidinyl)-N-(5-(6-methoxy-2-pyridinyl)-4-(3-oxetanylmethyl)-4H-1,2,4-triazol-3-yl)-2-butanesulfonamide]	> 4200
COCCn1c(NS(=O)(=O)[C@@H](C)[C@H](OC)c2ncc(Cl)cn2)nnc1-c1cccc(OC)n1 [Example 3.0, (1R,2S)-1-(5-chloro-2-pyrimidinyl)-1-methoxy-N-(4-(2-methoxyethyl)-5-(6-methoxy-2-pyridinyl)-4H-1,2,4-triazol-3-yl)-2-propanesulfonamide]	2.8
COCC1(n2c(NS(=O)(=O)[C@@H](C)[C@H](OC)c3ncc(Cl)cn3)nnc2-c2cccc(OC)n2)CC1 [Example 4.0]	0.16
COc1cccc(-c2nnc(NS(=O)(=O)[C@@H](C)[C@H](OC)c3ncc(Cl)cn3)n2C(CO)CO)n1 [Example 5.0, (1R,2S)-1-(5-chloro-2-pyrimidinyl)-N-(4-(2-hydroxy-1-(hydroxymethyl)ethyl)-5-(6-methoxy-2-pyridinyl)-4H-1,2,4-triazol-3-yl)-1-methoxy-2-propanesulfonamide]	50
COCC(COC)n1c(NS(=O)(=O)[C@@H](C)[C@H](OC)c2ncc(Cl)cn2)nnc1-c1cccc(OC)n1 [Example 6.0, (1R,2S)-1-(5-chloro-2-pyrimidinyl)-1-methoxy-N-(4-(2-methoxy-1-(methoxymethyl)ethyl)-5-(6-methoxy-2-pyridinyl)-4H-1,2,4-triazol-3-yl)-2-propanesulfonamide]	0.3
COc1cccc(-c2nnc(NS(=O)(=O)[C@@H](C)[C@H](OC)c3ncc(Cl)cn3)n2C2CC3(COC3)C2)n1 [Example 7.0, (1R,2S)-1-(5-chloro-2-pyrimidinyl)-1-methoxy-N-(5-(6-methoxy-2-pyridinyl)-4-(2-oxaspiro[3.3]hept-6-yl)-4H-1,2,4-triazol-3-yl)-2-propanesulfonamide]	240
COCC(COC)n1c(NS(=O)(=O)[C@@H](C)[C@H](OC)c2ncc(C)cn2)nnc1-c1ccccn1 [Example 8.0, (1R,2S)-N-(4-(1,3-dimethoxy-2-propanyl)-5-(2-pyridinyl)-4H-1,2,4-triazol-3-yl)-1-methoxy-1-(5-methyl-2-pyrimidinyl)-2-propanesulfonamide]	19
CCC(CC)n1c(NS(=O)(=O)[C@@H](C)[C@H](OC)c2ncc(Cl)cn2)nnc1-c1cccc(OC)n1 [Example 10.0, (1R,2S)-1-(5-chloro-2-pyrimidinyl)-1-methoxy-N-(5-(6-methoxy-2-pyridinyl)-4-(3-pentanyl)-4H-1,2,4-triazol-3-yl)-2-propanesulfonamide]	0.32
COc1cccc(-c2nnc(NS(=O)(=O)[C@@H](C)[C@H](OC)c3ncc(Cl)cn3)n2C(C)C)n1 [Example 11.0, (1R,2S)-1-(5-chloro-2-pyrimidinyl)-1-methoxy-N-(5-(6-methoxy-2-pyridinyl)-4-(2-propanyl)-4H-1,2,4-triazol-3-yl)-2-propanesulfonamide]	6.4
COCCn1c(NS(=O)(=O)[C@@H](C)[C@@H](OC(C)C)c2ncc(Cl)cn2)nnc1-c1cncc(C)c1 [Example 12.0, (1S,2S)-1-(5-chloro-2-pyrimidinyl)-N-(4-(2-methoxyethyl)-5-(5-methyl-3-pyridinyl)-4H-1,2,4-triazol-3-yl)-1-(2-propanyloxy)-2-propanesulfonamiide]	120
COCC(COC)n1c(NS(=O)(=O)[C@@H](C)[C@@H](OC(C)C)c2ncc(Cl)cn2)nnc1-c1cncc(C)c1 [Example 13.0, (1S,2S)-1-(5-chloro-2-pyrimidinyl)-N-(4-(1,3-dimethoxy-2-propanyl)-5-(5-methyl-3-pyridinyl)-4H-1,2,4-triazol-3-yl)-1-(2-propanyloxy)-2-propanesulfonamide]	80
COCC(COC)n1c(NS(=O)(=O)[C@@H](C)[C@H](OC)c2ncc(Cl)cn2)nnc1-c1ccccn1 [Example 14.0, (1R,2S)-1-(5-chloro-2-pyrimidinyl)-N-(4-(1,3-dimethoxy-2-propanyl)-5-(2-pyridinyl)-4H-1,2,4-triazol-3-yl)-1-methoxy-2-propanesulfonamiide]	6.4
COCC(COC)n1c(NS(=O)(=O)[C@@H](C)[C@H](OC)c2ncc(Cl)cn2)nnc1-c1cncc(C)c1 [Example 15.0, (1R,2S)-1-(5-chloro-2-pyrimidinyl)-N-(4-(1,3-dimethoxy-2-propanyl)-5-(5-methyl-3-pyridinyl)-4H-1,2,4-triazol-3-yl)-1-methoxy-2-propanesulfonamiide]	30
COCC(COC)n1c(NS(=O)(=O)[C@@H](C)[C@H](OC)c2ncc(Cl)cn2)nnc1-c1cccnc1 [Example 16.0]	44
COCC(COC)n1c(NS(=O)(=O)[C@@H](C)[C@H](C)c2cnc(C)cn2)nnc1-c1cccnc1 [Example 17.0, (2S,3R)-N-(4-(1,3-dimethoxy-2-propanyl)-5-(3-pyridinyl)-4H-1,2,4-triazol-3-yl)-3-(5-methyl-2-pyrazinyl)-2-butanesulfonamide]	380
COCC(COC)n1c(NS(=O)(=O)[C@@H](C)[C@H](C)c2ncc(Cl)cn2)nnc1-c1cccnc1 [Example 19.0, (2S,3R)-3-(5-chloro-2-pyrimidinyl)-N-(4-(1,3dimethoxy-2-propanyl)-5-(3-pyridinyl)-4H-1,2,4-triazol-3-yl)-2-butanesulfonamide]	26
COCCn1c(NS(=O)(=O)[C@@H](C)[C@H](C)c2ncc(OC)cn2)nnc1-c1cccc(OC)n1 [Example 20.0, (2S,3R)-N-(4-(2-methoxyethyl)-5-(6-methoxy-2-pyridinyl)-4H-1,2,4-triazol-3-yl)-3-(5-methoxy-2-pyrimidinyl)-2-butanesulfonamide]	110
COCCn1c(NS(=O)(=O)[C@@H](C)[C@H](C)c2ncc(OC)cn2)nnc1-c1ccccn1 [Example 21.0, (2S,3R)-N-(4-(2-methoxyethyl)-5-(2-pyridinyl)-4H-1,2,4-triazol-3-yl)-3-(5-methoxy-2-pyrimidinyl)-2-butanesulfonamide]	430
CCOCCn1c(NS(=O)(=O)[C@@H](C)[C@H](OC)c2ncc(Cl)cn2)nnc1-c1cccc(OC)n1 [Example 22.0, (1R,2S)-1-(5-chloro-2-pyrimidinyl)-N-(4-(2-ethoxyethyl)-5-(6-methoxy-2-pyridinyl)-4H-1,2,4-triazol-3-yl)-1-methoxy-2-propanesulfonamide]	3.2
COCCn1c(NS(=O)(=O)[C@@H](C)[C@@H](OC(C)C)c2ncc(Cl)cn2)nnc1-c1ccccn1 [Example 23.0, (1S,2S)-1-(5-chloro-2-pyrimidinyl)-N-(4-(2-methoxyethyl)-5-(2-pyridinyl)-4H-1,2,4-triazol-3-yl)-1-(2-propanyloxy)-2-propanesulfonamide]	15
COc1cccc(-c2nnc(NS(=O)(=O)[C@@H](C)[C@H](OC)c3ncc(Cl)cn3)n2C(C2CC2)C2CC2)n1 [Example 25.0, (1R,2S)-1-(5-chloro-2-pyrimidinyl)-N-(4-(dicyclopropylmethyl)-5-(6-methoxy-2-pyridinyl)-4H-1,2,4-triazol-3-yl)-1-methoxy-2-propanesulfonamide]	0.08

From patent US10689367B2, “Triazole pyridyl compounds as agonists of the APJ receptor” (AMGEN INC., priority 2016, dated 2020)
